pIC50: −log10 of the molar value. ≈ marks a conversion by molar mass, not a printed value. Calls of active or inactive are those of the source. The calls are words filed in the database; no cut-off is given here.
Experiments:
[1] = molecular target: T1, Gamma-secretase (Homo sapiens) (UniProt Q96BI3+Q9NZ42+Q8WW43+P49768+Q92542+P49810); assay: Binding affinity to gamma-secretase in human HeLa cells assessed as labeling of PS1-NTF at 5 uM by Western blot analysis in presence of 2-[2-(7-Fluoronaphthalen-1-yloxy)ethyl]-7-(4-methyl-1H-imidazol-1-yl)-3,4-dihydro-1H-pyrido[1,2-a]pyrazine-1,6(2H)-dione; type: cell-based
[2] = molecular target: T1, Gamma-secretase (Homo sapiens); assay: Binding affinity to gamma-secretase in human HeLa cells assessed as labeling of PS1-NTF at 5 uM by Western blot analysis; type: cell-based
[3] = molecular target: T1, Gamma-secretase (Homo sapiens); assay: Binding affinity to gamma-secretase in human HeLa cells assessed as labeling of PS1-NTF at 5 uM by Western blot analysis in presence of (S)-1-(1-(4-fluorophenyl)ethyl)-3-(3-methoxy-4-(4-methyl-1H-imidazol-1-yl)benzylidene)piperidin-2-one; type: cell-based
Gamma-secretase [4] = assay: Inhibition of gamma-secretase in human HeLa cells assessed as reduction of amyloid beta 42 level preincubated for 30 mins measured after 1.5 hrs by Western blotting analysis; type: cell-based
[5] = molecular target: T1, Gamma-secretase (Homo sapiens); assay: Binding affinity to gamma-secretase in human HeLa cells assessed as labeling of PS1-NTF at 5 uM by Western blot analysis in presence of GSI-L458; type: cell-based
[6] = Aqueous kinetic solubility of the compound at pH 6.5; type: physicochemical; settings: read-out: Kinetic_solubility
Cytochrome P450 2C8 = molecular target: T2, Cytochrome P450 2C8 (Homo sapiens, UniProt P10632); assay: Inhibition of CYP2C8 (unknown origin); type: ADME
T2 sequence (P10632 whole entry): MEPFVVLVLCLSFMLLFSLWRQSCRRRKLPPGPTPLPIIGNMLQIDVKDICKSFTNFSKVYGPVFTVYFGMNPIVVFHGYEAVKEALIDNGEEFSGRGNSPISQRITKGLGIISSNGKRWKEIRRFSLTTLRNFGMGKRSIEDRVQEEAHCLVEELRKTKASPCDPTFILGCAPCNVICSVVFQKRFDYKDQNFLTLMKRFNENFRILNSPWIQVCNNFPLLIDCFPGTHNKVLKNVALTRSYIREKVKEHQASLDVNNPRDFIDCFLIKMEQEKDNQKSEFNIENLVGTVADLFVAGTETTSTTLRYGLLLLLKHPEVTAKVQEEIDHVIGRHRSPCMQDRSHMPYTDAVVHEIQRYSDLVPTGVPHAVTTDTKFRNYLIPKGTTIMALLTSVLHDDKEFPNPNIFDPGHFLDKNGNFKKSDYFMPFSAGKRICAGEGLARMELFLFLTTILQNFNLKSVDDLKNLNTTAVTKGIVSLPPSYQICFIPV

[7] = Ratio of drug uptake in brain to plasma in rat at 5 mg/kg, po after 1 hr; type: ADME, organism-based; parameters: dose 5 mg/kg, route oral; settings: read-out: BPR
Cytochrome P450 2C19 = Cytochrome P450 2C19 (Homo sapiens, UniProt P33261); assay: Inhibition of CYP2C19 (unknown origin); type: ADME
[8] = Passive apparent permeability from apical to basolateral side in RRCK cells; type: ADME, cell-based, Canis lupus familiaris, MDCKII-LE; settings: dog, MDCK
[9] = Drug uptake in rat brain at 5 mg/kg, po after 1 hr; type: ADME, organism-based; parameters: dose 5 mg/kg, route oral; settings: read-out: Drug uptake
[10] = Bioavailability in rat at 1 mg/kg, iv and 5 mg/kg, po; type: ADME, organism-based; settings: in vivo
[11] = Clearance in rat at 1 mg/kg, iv; type: ADME, organism-based; parameters: dose 1 mg/kg, route intravenous; settings: in vivo
Cytochrome P450 1A2 = molecular target: T3, Cytochrome P450 1A2 (Homo sapiens, UniProt P05177); assay: Inhibition of CYP1A2 (unknown origin); type: ADME
T3 sequence (P05177 whole entry): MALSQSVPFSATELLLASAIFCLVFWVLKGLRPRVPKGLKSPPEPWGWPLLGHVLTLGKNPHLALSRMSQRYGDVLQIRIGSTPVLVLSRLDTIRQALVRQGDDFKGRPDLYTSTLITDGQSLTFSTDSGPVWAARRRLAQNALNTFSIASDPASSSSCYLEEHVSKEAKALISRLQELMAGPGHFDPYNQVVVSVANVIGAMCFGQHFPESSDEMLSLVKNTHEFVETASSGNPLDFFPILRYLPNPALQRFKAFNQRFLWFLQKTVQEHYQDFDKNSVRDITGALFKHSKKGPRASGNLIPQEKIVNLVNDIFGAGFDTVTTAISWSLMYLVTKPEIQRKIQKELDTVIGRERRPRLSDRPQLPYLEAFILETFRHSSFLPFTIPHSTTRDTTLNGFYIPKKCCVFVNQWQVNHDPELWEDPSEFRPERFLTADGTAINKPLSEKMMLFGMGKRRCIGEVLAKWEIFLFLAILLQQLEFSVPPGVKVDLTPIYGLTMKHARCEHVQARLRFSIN

[12] = Half life in rat at 1 mg/kg, iv; type: ADME, organism-based; parameters: dose 1 mg/kg, route intravenous; settings: in vivo
[13] = Volume of distribution at steady state in rat at 1 mg/kg, iv; type: ADME, organism-based; parameters: dose 1 mg/kg, route intravenous; settings: in vivo, read-out: Vdss
Gamma-secretase [14] = assay: Modulation of gamma secretase in HEK293 NdeltaE cells assessed as inhibition of notch signalling; type: cell-based, Homo sapiens
Cytochrome P450 2D6 = Cytochrome P450 2D6 (Homo sapiens, UniProt P10635); assay: Inhibition of CYP2D6 (unknown origin); type: ADME
[15] = Fraction unbound in rat plasma; type: ADME, cell-free
[16] = Apparent intrinsic clearance in rat liver microsomes; type: ADME; settings: read-out: CLH(app)
Cytochrome P450 3A4 = Cytochrome P450 3A4 (Homo sapiens, UniProt P08684); assay: Inhibition of CYP3A4 (unknown origin); type: ADME
Cytochrome P450 2C9 = Cytochrome P450 2C9 (Homo sapiens, UniProt P11712); assay: Inhibition of CYP2C9 (unknown origin); type: ADME
[17] = Plasma concentration in rat at 5 mg/kg, po after 1 hr; type: ADME, organism-based; parameters: dose 5 mg/kg, route oral
MDR1 (human) [18] = assay: Permeability from apical to basolateral side in MDCK cells expressing human MDR; type: ADME, cell-based, Canis lupus familiaris; settings: dog, read-out: permeability
[19] = Apparent intrinsic clearance in human liver microsomes; type: ADME; settings: read-out: CLH(app)
Gamma-secretase [20] = assay: Modulation of gamma-secretase (unknown origin) expressed in CHO cells overexpressing human wild type APP assessed as reduction of amyloid beta 42 level after 24 hrs by ELISA; type: cell-based
MDR1 (human) [21] = assay: Efflux ratio of permeability in MDCK cells expressing human MDR1; type: ADME, cell-based, Canis lupus familiaris; settings: dog
[22] = Lipophilicity, log D of the compound by shake flask method; type: physicochemical; settings: octanol/water
[23] = Ratio of unbound drug level in brain to plasma in rat; type: ADME
[24] = Fraction unbound in rat brain; type: ADME, tissue-based
[25] = Apparent intrinsic clearance in human hepatocytes; type: ADME, cell-based, Hepatocyte; settings: read-out: CLH(app)

Sequence of Cytochrome P450 2C19 (P33261 whole entry): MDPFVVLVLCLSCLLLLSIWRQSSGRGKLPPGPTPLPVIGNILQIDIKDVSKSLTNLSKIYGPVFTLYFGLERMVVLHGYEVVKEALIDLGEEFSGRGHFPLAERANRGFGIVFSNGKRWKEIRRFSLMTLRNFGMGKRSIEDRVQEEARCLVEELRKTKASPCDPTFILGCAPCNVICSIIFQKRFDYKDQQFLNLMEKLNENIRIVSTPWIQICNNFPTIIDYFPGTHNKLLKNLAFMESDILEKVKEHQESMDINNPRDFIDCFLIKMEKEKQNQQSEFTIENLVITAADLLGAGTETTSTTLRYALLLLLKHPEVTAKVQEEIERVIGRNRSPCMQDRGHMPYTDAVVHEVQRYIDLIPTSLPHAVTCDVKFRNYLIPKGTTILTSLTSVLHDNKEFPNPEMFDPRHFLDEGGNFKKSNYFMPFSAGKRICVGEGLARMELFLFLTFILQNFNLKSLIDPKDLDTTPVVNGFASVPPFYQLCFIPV
Sequence of Cytochrome P450 2D6 (P10635 whole entry): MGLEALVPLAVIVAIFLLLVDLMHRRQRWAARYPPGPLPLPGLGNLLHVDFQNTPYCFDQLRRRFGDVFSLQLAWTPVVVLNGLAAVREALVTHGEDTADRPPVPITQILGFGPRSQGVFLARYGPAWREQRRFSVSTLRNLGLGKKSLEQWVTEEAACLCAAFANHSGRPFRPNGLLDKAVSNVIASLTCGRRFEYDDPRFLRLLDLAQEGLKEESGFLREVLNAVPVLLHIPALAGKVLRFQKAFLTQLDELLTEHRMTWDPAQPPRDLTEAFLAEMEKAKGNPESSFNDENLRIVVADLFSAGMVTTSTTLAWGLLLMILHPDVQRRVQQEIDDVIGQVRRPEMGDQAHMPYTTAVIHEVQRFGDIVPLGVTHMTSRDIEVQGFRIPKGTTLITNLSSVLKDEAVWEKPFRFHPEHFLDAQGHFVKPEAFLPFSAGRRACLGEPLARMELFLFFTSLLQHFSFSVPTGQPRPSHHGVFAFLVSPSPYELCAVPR
Sequence of Cytochrome P450 2C9 (P11712 whole entry): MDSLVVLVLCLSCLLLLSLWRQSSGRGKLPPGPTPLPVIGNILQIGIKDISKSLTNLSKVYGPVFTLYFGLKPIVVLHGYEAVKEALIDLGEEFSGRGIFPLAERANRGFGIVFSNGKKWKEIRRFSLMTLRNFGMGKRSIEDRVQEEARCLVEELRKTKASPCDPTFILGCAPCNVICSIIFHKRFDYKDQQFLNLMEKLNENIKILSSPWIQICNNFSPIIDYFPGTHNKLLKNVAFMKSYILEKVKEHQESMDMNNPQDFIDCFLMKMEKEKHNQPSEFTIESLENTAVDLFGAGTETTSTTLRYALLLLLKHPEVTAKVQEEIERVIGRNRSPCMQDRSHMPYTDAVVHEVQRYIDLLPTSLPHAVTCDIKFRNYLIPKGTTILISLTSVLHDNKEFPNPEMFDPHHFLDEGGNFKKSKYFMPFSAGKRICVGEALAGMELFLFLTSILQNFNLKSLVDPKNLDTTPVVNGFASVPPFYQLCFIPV
Sequence of Cytochrome P450 3A4 (P08684 whole entry): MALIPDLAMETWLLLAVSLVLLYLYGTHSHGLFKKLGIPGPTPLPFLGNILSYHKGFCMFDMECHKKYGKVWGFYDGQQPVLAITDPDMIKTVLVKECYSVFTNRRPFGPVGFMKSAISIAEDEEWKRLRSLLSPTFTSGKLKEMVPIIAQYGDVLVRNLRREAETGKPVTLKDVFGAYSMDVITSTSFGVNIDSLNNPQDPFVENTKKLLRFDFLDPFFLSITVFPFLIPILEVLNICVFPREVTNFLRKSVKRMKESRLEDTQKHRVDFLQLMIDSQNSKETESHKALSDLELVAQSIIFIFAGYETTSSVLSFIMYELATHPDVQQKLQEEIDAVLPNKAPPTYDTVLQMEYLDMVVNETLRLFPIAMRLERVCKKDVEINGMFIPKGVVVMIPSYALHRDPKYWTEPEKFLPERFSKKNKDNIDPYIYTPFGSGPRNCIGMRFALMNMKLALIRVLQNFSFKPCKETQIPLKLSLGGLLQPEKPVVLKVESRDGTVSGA

C#CCCCOc1ccc(C(=O)c2cccc(OCCN3CCn4c(ccc(-n5cnc(C)c5)c4=O)C3=O)c2)cc1
Activity [1]: Active
Activity [2]: Active
Activity [3]: inactive
pIC50 (Gamma-secretase [4]): 6.87
Activity [5]: inactive

Cc1cn(-c2ccc3n(c2=O)CCN(CCOc2ccc(F)cc2C(F)(F)F)C3=O)cn1
solubility kinetic [6]: 177 µM (≈ 79.7 µg/mL)
pIC50 (Cytochrome P450 2C8): 4.72
Kp at 1 h [7]: 0.74
pIC50 (Cytochrome P450 2C19): < 4.52
Papp A→B [8]: 17.7 ×10⁻⁶ cm/s
concentration at 1 h [9]: 718 ng/mL
bioavailability [10]: 100%
clearance [11]: 14.3 mL/min/kg
pIC50 (Cytochrome P450 1A2): < 4.52
half-life [12]: 2.09 h
Vd [13]: 1.91 L/kg
pIC50 (Gamma-secretase [14]): < 4.30
pIC50 (Cytochrome P450 2D6): < 4.52
fraction unbound [15]: 0.055
CLint scaled [16]: 44.1 mL/min/kg
pIC50 (Cytochrome P450 3A4): < 4.52
pIC50 (Cytochrome P450 2C9): < 4.52
concentration at 1 h [17]: 964 ng/mL
Papp A→B (MDR1 (human) [18]): 13.1 ×10⁻⁶ cm/s
CLint scaled [19]: < 8.8 mL/min/kg
pIC50 (Gamma-secretase [20]): 6.60
efflux ratio (MDR1 (human) [21]): 1.5
logD [22]: 2.75
Kp uu [23]: 0.43
fraction unbound [24]: 0.032

Cc1cn(-c2ccc3n(c2=O)CCN(CCOc2cccc4ccc(F)cc24)C3=O)cn1
CLint scaled [16]: 469 mL/min/kg
CLint scaled [19]: 30 mL/min/kg
pIC50 (Gamma-secretase [20]): 7.82
efflux ratio (MDR1 (human) [21]): 1.5

Cc1cn(-c2ccc3n(c2=O)CCN(CCOc2cccc(C(F)(F)F)c2)C3=O)cn1
CLint scaled [16]: 79.4 mL/min/kg
CLint scaled [19]: < 8 mL/min/kg
pIC50 (Gamma-secretase [20]): 6.28
efflux ratio (MDR1 (human) [21]): 1.2

Cc1cn(-c2ccc3n(c2=O)CCN(CC2(c4ccc(Cl)cc4)CC2)C3=O)cn1
CLint scaled [25]: < 2.8 mL/min/kg
CLint scaled [16]: 482 mL/min/kg
CLint scaled [19]: 8.1 mL/min/kg
pIC50 (Gamma-secretase [20]): 6.39
efflux ratio (MDR1 (human) [21]): 1.7

COc1cc2c(=O)n(CCc3cccc(Cl)c3)ccc2cc1-n1cnc(C)c1
CLint scaled [19]: 32.7 mL/min/kg
pIC50 (Gamma-secretase [20]): < 4.80
efflux ratio (MDR1 (human) [21]): 1

COc1c(-n2cnc(C)c2)ccc2c(=O)n(CCc3cccc(Cl)c3)ccc12
CLint scaled [19]: 36.1 mL/min/kg
pIC50 (Gamma-secretase [20]): 5.47
efflux ratio (MDR1 (human) [21]): 1.2

Source: ChEMBL document CHEMBL3124856, “Design, synthesis, and pharmacological evaluation of a novel series of pyridopyrazine-1,6-dione γ-secretase modulators” (J Med Chem, 2014)
